Laboratory results from ChEMBL document CHEMBL5226284, “Small Molecule Inhibitors Targeting Biosynthesis of Ceramide, the Central Hub of the Sphingolipid Network” (J Med Chem, 2021).

Key:
[1] = Inhibition of bovine brain microsomes nSMase; parameters: species or system Bos taurus, Microsome
[2] = target: T1, Sphingomyelinase C (Bacillus cereus, UniProt P11889); test: Inhibition of Bacillus cereus SMaseC
T1 sequence (P11889 whole entry): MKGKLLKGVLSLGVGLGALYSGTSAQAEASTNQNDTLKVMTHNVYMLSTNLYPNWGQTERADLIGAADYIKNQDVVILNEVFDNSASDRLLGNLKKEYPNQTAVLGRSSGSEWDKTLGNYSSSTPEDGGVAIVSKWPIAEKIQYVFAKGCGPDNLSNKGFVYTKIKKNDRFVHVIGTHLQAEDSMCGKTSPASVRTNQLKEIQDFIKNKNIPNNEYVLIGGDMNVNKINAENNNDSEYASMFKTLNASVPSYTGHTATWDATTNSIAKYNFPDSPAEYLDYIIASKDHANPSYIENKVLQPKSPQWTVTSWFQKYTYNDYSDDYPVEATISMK

[3] = target: T2, Sphingomyelin phosphodiesterase 2 (Rattus norvegicus) (UniProt Q9ET64); test: Inhibition of rat brain microsomes nSMase at 100 uM relative to control; details: Microsome
T2 sequence (whole entry): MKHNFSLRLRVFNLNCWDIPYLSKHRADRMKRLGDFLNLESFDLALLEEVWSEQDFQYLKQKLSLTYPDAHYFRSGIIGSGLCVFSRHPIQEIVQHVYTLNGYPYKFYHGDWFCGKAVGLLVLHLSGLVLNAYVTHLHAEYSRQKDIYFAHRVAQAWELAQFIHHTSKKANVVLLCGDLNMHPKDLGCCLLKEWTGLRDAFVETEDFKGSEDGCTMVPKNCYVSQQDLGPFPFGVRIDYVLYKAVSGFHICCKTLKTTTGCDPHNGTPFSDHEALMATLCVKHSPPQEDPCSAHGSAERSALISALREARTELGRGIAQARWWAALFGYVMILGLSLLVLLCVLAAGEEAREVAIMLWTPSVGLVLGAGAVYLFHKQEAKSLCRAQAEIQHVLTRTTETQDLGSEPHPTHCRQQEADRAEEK

[4] = target: T2, Sphingomyelin phosphodiesterase 2 (Rattus norvegicus); test: Inhibition of rat brain microsomes nSMase at 100 uM incubated for 60 mins relative to control; details: Microsome
[5] = Inhibition of CerS human HCT-116 cells microsomal fraction assessed as reduction in C16 dihydroceramide synthesis by LC-MS/MS analysis; type: microsomes, Microsome
[6] = Inhibition of CerS human HCT-116 cells microsomal fraction assessed as reduction in C24 dihydroceramide synthesis by LC-MS/MS analysis; type: microsomes, Microsome
[7] = Inhibition of CerS human HCT-116 cells microsomal fraction assessed as reduction in C18 dihydroceramide synthesis by LC-MS/MS analysis; type: microsomes, Microsome
[8] = Inhibition of CerS human HCT-116 cells microsomal fraction assessed as reduction in C24:1 dihydroceramide synthesis by LC-MS/MS analysis; type: microsomes, Microsome
[9] = target: T2, Sphingomyelin phosphodiesterase 2 (Rattus norvegicus); test: Inhibition of rat brain microsomes nSMase at 350 uM measured after 15 mins relative to control; details: Microsome
[10] = target: T3, Sphingomyelin phosphodiesterase 2 (Rattus norvegicus, UniProt Q9ET64); test: Inhibition of rat brain microsomes nSMase; parameters: species or system Microsome
T3 sequence (Q9ET64 whole entry): T2 sequence (whole entry)

[11] = test system: HEK293; test: Competitive inhibition of CerS in HEK293 cells at 10 uM relative to control; type: cell-based; details: Homo sapiens
[12] = target: Ceramide synthase 5 (Homo sapiens) (UniProt Q8N5B7); test: Inhibition of CerS5 (unknown origin) at 10 uM relative to control
[13] = target: Ceramide synthase 6 (Homo sapiens) (UniProt Q6ZMG9); test: Inhibition of CerS6 (unknown origin) at 10 uM relative to control
[14] = target: T4, Ceramide synthase 1 (Homo sapiens) (UniProt P27544); test: Inhibition of CerS1 (unknown origin) at 10 uM relative to control
T4 sequence (whole entry): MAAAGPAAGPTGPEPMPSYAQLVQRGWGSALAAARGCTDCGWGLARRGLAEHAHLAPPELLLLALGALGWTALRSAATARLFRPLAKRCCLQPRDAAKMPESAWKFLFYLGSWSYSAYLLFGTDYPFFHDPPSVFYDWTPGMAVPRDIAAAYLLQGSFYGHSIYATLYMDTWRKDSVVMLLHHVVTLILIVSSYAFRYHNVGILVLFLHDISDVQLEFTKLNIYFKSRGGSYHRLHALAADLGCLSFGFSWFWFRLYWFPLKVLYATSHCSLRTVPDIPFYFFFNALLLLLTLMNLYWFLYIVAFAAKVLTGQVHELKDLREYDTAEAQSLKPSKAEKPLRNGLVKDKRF

[15] = target: T5, Sphingomyelin phosphodiesterase 2 (Mus musculus, UniProt O70572); test: Inhibition of mouse nSMase
T5 sequence (O70572 whole entry): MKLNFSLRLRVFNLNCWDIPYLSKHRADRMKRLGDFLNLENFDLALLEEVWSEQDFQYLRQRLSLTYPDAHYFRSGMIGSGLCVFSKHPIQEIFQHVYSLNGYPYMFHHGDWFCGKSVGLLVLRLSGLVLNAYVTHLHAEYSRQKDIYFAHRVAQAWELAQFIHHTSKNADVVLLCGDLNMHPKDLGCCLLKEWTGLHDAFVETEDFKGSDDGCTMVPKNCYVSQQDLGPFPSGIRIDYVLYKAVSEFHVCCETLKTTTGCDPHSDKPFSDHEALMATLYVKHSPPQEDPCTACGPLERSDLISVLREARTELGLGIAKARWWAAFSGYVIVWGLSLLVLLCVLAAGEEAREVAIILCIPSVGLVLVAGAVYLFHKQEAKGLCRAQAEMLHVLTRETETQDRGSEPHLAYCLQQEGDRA

[16] = target: T6, Sphingolipid delta(4)-desaturase DES1 (Rattus norvegicus, UniProt Q5XIF5); test: Inhibition of rat liver microsome DES1 incubated for 20 min in presence of NADH by liquid scintillation counter method; type: microsomes
T6 sequence (Q5XIF5 whole entry): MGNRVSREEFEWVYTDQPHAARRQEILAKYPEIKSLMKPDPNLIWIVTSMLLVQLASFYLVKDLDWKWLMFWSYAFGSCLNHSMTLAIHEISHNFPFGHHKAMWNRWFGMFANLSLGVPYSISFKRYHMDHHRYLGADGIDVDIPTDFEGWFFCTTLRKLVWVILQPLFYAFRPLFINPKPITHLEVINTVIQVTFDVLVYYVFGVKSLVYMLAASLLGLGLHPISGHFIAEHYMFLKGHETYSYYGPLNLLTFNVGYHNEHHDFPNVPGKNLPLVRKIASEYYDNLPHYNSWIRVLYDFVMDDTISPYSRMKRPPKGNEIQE

[17] = target: T2, Sphingomyelin phosphodiesterase 2 (Rattus norvegicus); test: Inhibition of rat brain microsomes nSMase at 200 uM measured after 90 mins relative to control; details: Microsome
[18] = target: Sphingomyelin phosphodiesterase 3 (Homo sapiens) (UniProt Q9NY59); test: Inhibition of nSMase2 (unknown origin) at 50 uM relative to control
[19] = Inhibition of rat brain aSMase; type: tissue-based
[20] = species on record: Bos taurus; test: Inhibition of bovine brain microsomes nSMase measured after 60 mins relative to control; details: Microsome
[21] = Inhibition of bovine brain microsomes nSMase assessed as inhibition constant; parameters: species or system Bos taurus, Microsome

Sphingomyelin phosphodiesterase 3 (Homo sapiens), sequence (Q9NY59 whole entry): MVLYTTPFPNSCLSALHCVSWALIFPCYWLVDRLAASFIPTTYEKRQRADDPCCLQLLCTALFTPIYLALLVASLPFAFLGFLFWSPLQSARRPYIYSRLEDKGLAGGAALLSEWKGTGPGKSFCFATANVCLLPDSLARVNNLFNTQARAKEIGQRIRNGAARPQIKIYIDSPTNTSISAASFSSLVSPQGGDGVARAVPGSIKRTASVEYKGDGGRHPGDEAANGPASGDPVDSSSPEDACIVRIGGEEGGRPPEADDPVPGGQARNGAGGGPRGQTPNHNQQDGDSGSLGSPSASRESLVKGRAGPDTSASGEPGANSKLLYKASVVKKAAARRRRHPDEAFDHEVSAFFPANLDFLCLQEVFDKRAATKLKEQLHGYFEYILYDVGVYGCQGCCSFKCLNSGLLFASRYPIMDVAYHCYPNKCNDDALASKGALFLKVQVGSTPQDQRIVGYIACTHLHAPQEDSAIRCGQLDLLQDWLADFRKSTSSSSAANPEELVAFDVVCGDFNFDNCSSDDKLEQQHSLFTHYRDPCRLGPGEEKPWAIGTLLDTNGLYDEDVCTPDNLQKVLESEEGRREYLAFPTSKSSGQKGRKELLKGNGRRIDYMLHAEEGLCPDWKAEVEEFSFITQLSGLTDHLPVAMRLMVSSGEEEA
Ceramide synthase 5 (Homo sapiens), sequence (Q8N5B7 whole entry): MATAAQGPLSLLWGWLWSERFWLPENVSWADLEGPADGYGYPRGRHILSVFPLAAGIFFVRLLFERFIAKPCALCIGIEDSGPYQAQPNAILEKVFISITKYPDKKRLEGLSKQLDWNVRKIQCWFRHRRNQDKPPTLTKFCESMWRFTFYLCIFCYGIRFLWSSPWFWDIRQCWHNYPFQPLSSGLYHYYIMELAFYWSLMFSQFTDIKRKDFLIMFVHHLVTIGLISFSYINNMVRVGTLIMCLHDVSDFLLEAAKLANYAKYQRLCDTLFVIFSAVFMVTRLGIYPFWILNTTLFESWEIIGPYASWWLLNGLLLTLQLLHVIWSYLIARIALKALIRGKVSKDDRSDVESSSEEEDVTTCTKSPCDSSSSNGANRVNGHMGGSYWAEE
Ceramide synthase 6 (Homo sapiens), sequence (Q6ZMG9 whole entry): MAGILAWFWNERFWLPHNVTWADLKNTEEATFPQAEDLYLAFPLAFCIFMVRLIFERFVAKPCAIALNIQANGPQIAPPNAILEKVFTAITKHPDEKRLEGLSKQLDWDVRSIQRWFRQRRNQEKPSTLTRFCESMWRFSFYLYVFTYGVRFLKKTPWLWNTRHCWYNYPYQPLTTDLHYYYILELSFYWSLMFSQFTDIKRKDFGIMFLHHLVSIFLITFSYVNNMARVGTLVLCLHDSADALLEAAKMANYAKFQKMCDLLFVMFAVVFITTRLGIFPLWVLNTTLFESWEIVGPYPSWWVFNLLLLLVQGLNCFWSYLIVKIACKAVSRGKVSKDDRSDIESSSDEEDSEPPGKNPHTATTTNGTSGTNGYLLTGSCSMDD

**Q.** For `CCCCCCCCCCCCCCCC(=O)N[C@@H](CC(F)(F)P(=O)(O)O)[C@H](O)c1ccccc1`, which IC50 [1] is on record?
**A.** The IC50 was 181 µM.

**Q.** With `CCCCCCC[C@@H](O)[C@H](CC(F)(F)P(=O)([O-])OCC[N+](C)(C)C)NC(=O)CCCCC` as the compound, how does the IC50 [2] read?
**A.** The IC50 was 57 µM.

**Q.** For `CCCCCCCCCCCC(=O)NC1=CC(=O)[C@H]2O[C@H]2C1=O`, which inhibition [3] is on record?
**A.** The inhibition was 10%.

**Q.** And the inhibition [4]?
**A.** The inhibition was 88%.

**Q.** Which results are given for `CCCCCCCOc1ccc(CCC(CO)(CO)NC(=O)CCCc2ccccc2)cc1`?
**A.** IC50 [5]: 50.4 µM; IC50 [6]: 81.3 µM; IC50 [7]: 26.9 µM; IC50 [8]: 61.3 µM

**Q.** With `C/C=C/C=C/C(=O)N[C@@H](CO)[C@H]1CC(CCCCCC)C(=O)O1` (stereo partly drawn) as the compound, how does the inhibition [9] read?
**A.** Its inhibition is 90%.

**Q.** Which IC50 [10] does the source give for `CC(C)(O)/C=C/c1cc(O)ccc1O` here?
**A.** Its IC50 is 17 µM.

**Q.** For `CCCCCCCOc1ccc(CC[C@](C)(N)CO)cc1`, which inhibition [11] is on record?
**A.** The inhibition was 50%.

**Q.** What about the inhibition [12] of the same compound?
**A.** Its inhibition is 50%.

**Q.** What about the inhibition [13] of the same compound?
**A.** The inhibition was 50%.

**Q.** And the inhibition [14]?
**A.** Its inhibition is greater than 90%.

**Q.** For `CCOc1ccc(OCC)c(NC(=O)C2=C(C)NC(=S)NC2c2ccc(N(CC)CC)cc2)c1` (stereo not drawn), which IC50 [15] is on record?
**A.** The IC50 was 0.86 µM.

**Q.** What does the source list for `CC(C)C/C=C/C=C/C(=O)NC1=CC(=O)[C@H]2O[C@H]2C1=O`?
**A.** inhibition [3]: 90%; inhibition [4]: 98%

**Q.** For `CCCCCCCCCCCCCCCCC(=O)NC(CO)(CO)CCc1ccc(OCCCCCCC)cc1`, which IC50 [6] is on record?
**A.** Its IC50 is 63.6 µM.

**Q.** Which IC50 [16] does the source give for `CC1=C(/C=C/C(C)=C/C=C/C(C)=C/C(=O)Nc2ccc(O)cc2)C(C)(C)CCC1=O` here?
**A.** Its IC50 is 1.68 µM.

**Q.** For `CCCCCCCCCC(=O)N[C@H](Cc1ccccc1)C(=O)NC1=CC2(CO2)C(=O)C=C1` (stereo partly drawn), which inhibition [17] is on record?
**A.** Its inhibition is 23%.

**Q.** For `CC(C)(O)/C=C/C1=CC(=O)C=CC1=O`, which IC50 [10] is on record?
**A.** Its IC50 is 4.2 µM.

**Q.** Which IC50 [7] does the source give for `CCCCCCCOc1ccc(CCC(CO)(CO)N(C)C)cc1` here?
**A.** Its IC50 is 21.4 µM.

**Q.** And the IC50 [8]?
**A.** Its IC50 is 28.7 µM.

**Q.** With `CCCCCCC[C@@H](O)[C@H](CCP(=O)([O-])OCC[N+](C)(C)C)NC(=O)CCCCC` as the compound, how does the IC50 [2] read?
**A.** Its IC50 is 120 µM.

**Q.** For `CN1c2ccc(OC(=O)Nc3ccccc3)nc2[C@]2(C)CCO[C@H]12`, which inhibition [18] is on record?
**A.** The inhibition was 60%.

**Q.** With `CCCCOc1ccc(CC[C@](C)(N)CO)cc1` as the compound, how does the inhibition [14] read?
**A.** Its inhibition is 16%.

**Q.** With `CCCCCCCCCC(=O)N[C@H](CO)C(=O)NC1=CC2(CO2)C(=O)C=C1` (stereo partly drawn) as the compound, how does the inhibition [17] read?
**A.** Its inhibition is 80%.

**Q.** With `Cc1csc(-c2c(C(F)(F)F)oc3cc(O)c(C)cc3c2=O)n1` as the compound, how does the IC50 [19] read?
**A.** The IC50 was 9.5 µM.

**Q.** Which inhibition [20] does the source give for `CCCCCCCCCCCCCCNC(=S)N[C@H](CO)[C@H](O)c1ccc([N+](=O)[O-])cc1` here?
**A.** The inhibition was 90%.

**Q.** What about the Ki [21] of the same compound?
**A.** The Ki was 2.5 µM.

**Q.** For `S=c1[nH]nc(-c2cccs2)n1CC1CCCCC1`, which IC50 [15] is on record?
**A.** Its IC50 is 2.5 µM.

**Q.** For `COc1ccc2oc(-c3cc(Br)cc4c3OCOC4)c(N)c(=O)c2c1`, which IC50 [19] is on record?
**A.** Its IC50 is 3.1 µM.

**Q.** For `CCCCCCC[C@@H](O)[C@H](CNP(=O)([O-])OCC[N+](C)(C)C)NC(=O)CCCCC`, which IC50 [2] is on record?
**A.** Its IC50 is 53 µM.
